This is an account of results in patent US4902677A, “Treatment of heart failure of mammals with N^6 -substituted cyclic adenosine monophosphates” (Kikkoman Corporation, priority 1987, dated 1990).

Structures can show the parent of a compound that is named as a salt.

The nature of data set [1]: Acute toxicity, intraperitoneal (Test Example 3). To be noted: mouse, in vivo, ip, female mice, in dimethyl sulfoxide, observed for 7 days. Here is the method:
Test animal: female ICR-CRJ: CD-1 mice, 5 weeks old, body weight 29 to 32 g
LD50 was calculated according to the Richfield-Wilcockson method (Pharmacological Tests, p 200-205, Nanzando, 1967).

For data set [2], the system named is guinea pig papillary muscle. The data set is described as follows: Contractive force of extirpated guinea pig papillary muscle preparation (Test Example 1). To be noted: Cavia porcellus; 10^-3 M; relative to 10^-7 M Isoproterenol (positive control) as 100%; read-out: Increase in contractive force. Here is the method:
Test animal: guinea-pigs Method of Experiment: extirpated guinea pig papillary muscle preparation. Male albino guinea pigs having body weights of 300 to 500 g were stunned by a blow on the head. The hearts were quickly extirpated and the papillary muscles of the right ventricle were dissected out in cold bathing solution (2° to 4° C.), and were suspended in a 10 ml organ bath for recording isometric contractions. The bathing solution was the Krebs-Henseleit solution (32°±0.5° C.) and was continuously bubbled with a mixed gas composed of 95% O2 and 5% CO2. The papillary muscle preparation were stimulated by square wave pulses of 1 msec duration at the frequency of 1 Hz and at voltages of 20% above the threshold supplied by a square-wave pulse stimulator via a pair of the silver plate electrodes in which the preparations were placed. The isometric contraction was measured by a force-displacement transducer connected to a carrier-amplifier. The test solution was prepared by dissolving the sodium salt into distilled water or dissolving the free acid into Krebs-Henseleit solution. […] The results are shown as relative values (%), taking the result given by a reaction using 10^-7 M Isoproterenol (positive control) as 100%.

Another data set relates to heart-lung preparation. The data set is described as follows: Cardiotonic activity on heart-lung preparation, acute heart failure induced by Pentobarbital (Test Example 2). The note with it: for Change in Heart rate / Decrease in right atrium pressure / Increase in systemic output: versus nonadministration group. Also on record: species or system dog. On the procedure:
Test animal: Crossbred adult dogs (female and male) Method of Experiment: cardiotonic activity on heart-lung preparation. Using female and male crossbred dogs having body weights of 9 to 10 kg anesthetized with Pentobarbital, heart-lung preparations were prepared in the usual way, on which systemic output, right atrium pressure and heart rate were measured. […] Regarding the control (no administration group), the results express the values after administration of Pentobarbital.

In the next data set the test system is heart. The note with it: literature; result in words; cited from earlier work.

What is called LD50 is the dose expected to kill half of the subjects tested. A higher LD50 goes with a less toxic substance. `CCCCCCCCCNc1ncnc2c1ncn2[C@@H]1O[C@@H]2COP(=O)(O)O[C@H]2[C@H]1O` [N^6 --Nonyl-C--AMP Na] gave an LD50 at 168 h in data set [1] of 150 mg/kg. Moreover, the activation at 1000 µM in data set [2] came out at 49.5%.
In the same order, the values of `O=P1(O)OC[C@H]2O[C@@H](n3cnc4c(NCc5ccccc5)ncnc43)[C@H](O)[C@@H]2O1` [N^6 --Benzyl-C--AMP Na] are 383 mg/kg and 91.7%.
Consider `CCCCCNc1ncnc2c1ncn2[C@@H]1O[C@@H]2COP(=O)(O)O[C@H]2[C@H]1O` [N^6 --Pentyl-C--AMP], for which the activation at 1000 µM in data set [2] was 98%.
Turning to `CCCCCCCNc1ncnc2c1ncn2[C@@H]1O[C@@H]2COP(=O)(O)O[C@H]2[C@H]1O` [sodium salt of N^6-heptyl-adenosine-3',5'-cyclic phosphate], in the data set on heart-lung preparation (10 mg), the Heart rate came out at 112 beats/min, the Right atrium pressure was 96.9 mm H2 O, the Systemic output turned out to be 409 ml/min./100 g heart and the “Change in Heart rate” value was 2 beats/min. Further, in the data set with heart-lung preparation (10 mg), the “Decrease in right atrium pressure” value is 12.1 mm H2 O and the “Increase in systemic output” value stood at 150 ml/min./100 g heart. Moreover, in the data set with heart-lung preparation (30 mg), the Heart rate turned out to be 120 beats/min, the Right atrium pressure was 68.3 mm H2 O, the Systemic output was 610 ml/min./100 g heart and the “Change in Heart rate” value stood at 10 beats/min. In the data set on heart-lung preparation (30 mg), the “Decrease in right atrium pressure” value was 40.7 mm H2 O and the “Increase in systemic output” value turned out to be 351 ml/min./100 g heart.
In turn, `CCCCCCCNc1ncnc2c1ncn2[C@@H]1O[C@@H]2COP(=O)(O)O[C@H]2[C@H]1O` [N^6 --Heptyl-C--AMP, N^6-heptyladenosine-3',5'-cyclic phosphate] yielded an LD50 at 168 h in data set [1] of 174 mg/kg. In addition, the “acute heart failure state induced by Pentobarbital” value with heart-lung preparation (10 mg or 30 mg, result in words) was “remarkably improved”. Moreover, the activation at 1000 µM in data set [2] was 94.1%.
Consider `CC(C)CNc1ncnc2c1ncn2[C@@H]1O[C@@H]2COP(=O)(O)O[C@H]2[C@H]1O` [N^6 --Isobutyl-C--AMP], for which the activation at 1000 µM in data set [2] worked out at 24%.
Regarding `CCCCNc1ncnc2c1ncn2[C@@H]1O[C@@H]2COP(=O)(O)O[C@H]2[C@H]1O` [N^6 --Butyl-C--AMP], in data set [1], the LD50 at 168 h stood at 350 mg/kg. For the same compound, in data set [2], the activation at 1000 µM was 71%.
In the same order, the values of `O=P1(O)OC[C@H]2O[C@@H](n3cnc4c(NCc5ccco5)ncnc43)[C@H](O)[C@@H]2O1` [N^6 --Furfuryl-C--AMP Na] are 483 mg/kg and 93.2%.
As for `CCCC(=O)Nc1ncnc2c1ncn2[C@@H]1O[C@@H]2COP(=O)(O)O[C@H]2[C@H]1OC(=O)CCC` [N^6,2'-O-dibutyryl C-AMP], in the data set with heart, the myocardial contractility entry is on record as “have a mycocardial contractile effect”.
